Literature values, collected in patent publication US20100135908A1, “Delivery devices for modulating inflammation” (Searete LLC, a limited liability corporation of the state …, priority 2008, published 2010).
Values belong to the compound of their own block, whether it stands above or below them.

Experiments:
[1] = mice
[2] = single agent, 400 mg infused over one hour
[3] = system: Src family kinases (Src, Lck, Yes, Fyn); conditions: at nanomolar concentrations
proteasome = conditions: cultured breast cancer cells; disulfiram bound to copper

Compound: Cl.Cl.Nc1ccccc1Oc1ccc2c(N)nsc2c1 [Example M62812, 3-amino-6-(2-aminophenoxy)-1,2-benzisothiazole dihydrochloride]
prevention of lethal septic shock [1]: prevents lethal septic shock

complications of intravenous infusion [2]: without complication
Compound: CCN(CC)CCCC(C)Nc1ccnc2cc(Cl)ccc12.O=P(O)(O)O.O=P(O)(O)O (centres unmarked) [chloroquine phosphate, 7-chloro-4-[[4-(diethylamino)-1-methylbutyl]amino]quinoline phosphate (1:2)]

inhibition of CpG-induced Src family kinase activation or its dependent cellular responses (Src family kinase): does not inhibit
Compound: CCN(CC)CCCC(C)Nc1ccnc2cc(Cl)ccc12 (centres unmarked) [chloroquine]

Compound: Cc1nc(Nc2ncc(C(=O)Nc3c(C)cccc3Cl)s2)cc(N2CCN(CCO)CC2)n1.O [dasatinib, N-(2-chloro-6-methylphenyl)-2-[[6-[4-(2-hydroxyethyl)-1-piperazinyl]-2-methyl-4-pyrimidinyl]amino]-5-thiazolecarboxamide, monohydrate]
inhibition of Src family kinases (Src, Lck, Yes, Fyn) [3]: inhibits

Compound: CCN(CC)C(=S)SSC(=S)N(CC)CC [disulfiram, 1-(diethylthiocarbamoyldisulfanyl)-N,N-diethyl-methanethioamide]
proteasomal activity (proteasome): inhibits proteasomal activity
